Data reported in US8710178B2, “Macrocyclic cysteine protease inhibitors and compositions thereof” (Lincoln University, priority 2006, dated 2014).
Read-outs that look alike come from different tables or passages of the source.

Columns and labels:
[1] = molecular target: T1, calpain II (m calpain) (Homo sapiens, UniProt P17655); assay: BODIPY-casein fluorescence-based enzyme assay, calpain II / m-calpain; type: biochemical; details: BODIPY-casein substrate
T1 sequence (P17655 1-700): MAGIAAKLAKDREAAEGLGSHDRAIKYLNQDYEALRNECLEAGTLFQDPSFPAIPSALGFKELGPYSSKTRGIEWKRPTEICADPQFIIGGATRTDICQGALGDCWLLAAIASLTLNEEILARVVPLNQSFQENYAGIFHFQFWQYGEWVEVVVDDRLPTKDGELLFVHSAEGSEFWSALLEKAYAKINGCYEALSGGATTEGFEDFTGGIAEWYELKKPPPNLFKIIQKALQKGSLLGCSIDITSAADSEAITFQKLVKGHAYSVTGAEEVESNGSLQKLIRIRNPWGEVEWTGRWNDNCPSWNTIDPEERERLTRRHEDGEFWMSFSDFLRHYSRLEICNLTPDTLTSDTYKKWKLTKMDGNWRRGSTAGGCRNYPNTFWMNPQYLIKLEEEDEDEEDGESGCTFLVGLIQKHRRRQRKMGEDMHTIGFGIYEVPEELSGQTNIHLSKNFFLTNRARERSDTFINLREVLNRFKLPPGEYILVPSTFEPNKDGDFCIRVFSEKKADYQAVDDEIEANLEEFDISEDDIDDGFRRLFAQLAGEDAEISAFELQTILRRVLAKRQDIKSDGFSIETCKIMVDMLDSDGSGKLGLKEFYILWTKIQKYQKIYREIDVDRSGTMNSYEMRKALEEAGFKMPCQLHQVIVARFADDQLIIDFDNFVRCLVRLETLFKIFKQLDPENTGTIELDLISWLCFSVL
T1 sequence (P04632 1-268 partner): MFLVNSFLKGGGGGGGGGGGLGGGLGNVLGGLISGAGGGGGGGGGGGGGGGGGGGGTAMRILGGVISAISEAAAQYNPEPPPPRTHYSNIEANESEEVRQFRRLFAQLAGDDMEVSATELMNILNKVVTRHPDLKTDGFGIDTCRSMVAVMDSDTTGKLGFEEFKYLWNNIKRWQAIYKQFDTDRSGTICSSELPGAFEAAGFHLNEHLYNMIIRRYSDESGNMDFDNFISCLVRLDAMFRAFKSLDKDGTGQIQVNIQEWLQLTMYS
Procedure: (§1) The inhibitors were assayed against several enzymes using a BODIPY-casein substrate in the fluorescence-based assay procedure of V. F. Thompson, S. Saldana, J. Cong and D. E. Goll, Anal. Biochem. 2000, 279, 170.
A number of the compounds were assayed against m-calpain using a BODIPY-casein substrate in the fluorescence-based assay procedure of V. F. Thompson, S. Saldana, J. Cong and D. E. Goll, Anal. Biochem. 2000, 279, 170.

[2] = rcm bond, 1,1,2-trichloroethane
[3] = molecular target: cathepsin B (Homo sapiens, UniProt P07858); assay: BODIPY-casein fluorescence-based enzyme assay, cathepsin B; type: biochemical; details: BODIPY-casein substrate
[4] = molecular target: α-chymotrypsin (Bos taurus, UniProt P00766); assay: BODIPY-casein fluorescence-based enzyme assay, α-chymotrypsin; type: biochemical; details: BODIPY-casein substrate
[5] = molecular target: T2, calpain I (μ calpain) (Homo sapiens, UniProt P07384); assay: BODIPY-casein fluorescence-based enzyme assay, calpain I; type: biochemical; details: BODIPY-casein substrate
T2 sequence (P07384 1-714): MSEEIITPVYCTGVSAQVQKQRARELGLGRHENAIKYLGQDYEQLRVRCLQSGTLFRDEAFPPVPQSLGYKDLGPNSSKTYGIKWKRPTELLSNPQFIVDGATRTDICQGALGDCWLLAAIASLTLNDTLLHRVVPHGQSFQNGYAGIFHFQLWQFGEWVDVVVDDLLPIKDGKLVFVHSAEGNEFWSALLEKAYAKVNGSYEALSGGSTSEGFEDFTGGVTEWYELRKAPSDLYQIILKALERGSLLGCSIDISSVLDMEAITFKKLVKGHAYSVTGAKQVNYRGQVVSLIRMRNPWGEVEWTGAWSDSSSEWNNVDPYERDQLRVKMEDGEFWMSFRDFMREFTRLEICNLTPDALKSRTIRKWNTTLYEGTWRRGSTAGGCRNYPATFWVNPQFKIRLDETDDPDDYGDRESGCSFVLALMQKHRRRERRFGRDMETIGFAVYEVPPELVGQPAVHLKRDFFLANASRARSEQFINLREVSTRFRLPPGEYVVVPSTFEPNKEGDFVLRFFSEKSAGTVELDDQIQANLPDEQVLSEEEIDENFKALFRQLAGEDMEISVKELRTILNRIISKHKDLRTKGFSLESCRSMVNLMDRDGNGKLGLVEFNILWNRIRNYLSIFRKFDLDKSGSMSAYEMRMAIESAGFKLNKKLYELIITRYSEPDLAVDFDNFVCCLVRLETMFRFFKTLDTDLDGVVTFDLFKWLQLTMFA
T2 sequence (P04632 1-268 partner): T1 sequence (P04632 1-268 partner)

[6] = molecular target: T3, papain (Carica papaya, UniProt P00784); assay: BODIPY-casein fluorescence-based enzyme assay, papain; type: biochemical; details: BODIPY-casein substrate
T3 sequence (P00784 134-345): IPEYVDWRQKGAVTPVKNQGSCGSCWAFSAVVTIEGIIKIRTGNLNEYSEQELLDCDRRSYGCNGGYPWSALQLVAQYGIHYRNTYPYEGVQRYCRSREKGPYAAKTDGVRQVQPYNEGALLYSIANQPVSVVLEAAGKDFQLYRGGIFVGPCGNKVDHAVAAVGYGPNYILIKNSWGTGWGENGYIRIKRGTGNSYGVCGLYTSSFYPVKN
Procedure: as §1

[7] = Table 3, read-out: IC50 against m-calpain
[8] = Table 2, read-out: IC50 calpain II (m calpain)
[9] = 19-membered ring, Grubbs II (3 x 0.10 equiv), microwave, 10.0 mM

Compound: CC(C)[C@@H]1NC(=O)[C@@H](NS(=O)(=O)c2ccc(F)cc2)Cc2ccc(cc2)OCCC[C@@H](C=O)NC1=O [Compound 69, 4-Fluoro-N-((6S,9S,12S)-6-formyl-9-isopropyl-8,11-dioxo-2-oxa-7,10-diaza-bicyclo[12.2.2]octadeca-1(17),14(18),15-trien-12-yl)-benzenesulfonamide]
- IC50 [1, 7]: 3710 nM

Compound: CC(C)[C@@H]1NC(=O)[C@@H](NS(=O)(=O)c2ccc(F)cc2)Cc2ccc(cc2)OCCCCSC[C@@H](C=O)NC1=O [Compound 58, 4-Fluoro-N-((9R,12S,15S)-9-formyl-12-isopropyl-11,14-dioxo-2-oxa-7-thia-10,13-diaza-bicyclo[15.2.2]henicosa-1(20),17(21),18-trien-15-yl)-benzenesulfonamide]
- IC50 [1, 7]: 2400 nM

Compound: (E/Z)-(9R,12S,15S)-15-tert-Butoxycarbonylamino-12-isopropyl-11,14-dioxo-2-oxa-7-thia-10,13-diaza-bicyclo[15.2.2]henicosa-1(20),4,17(21),18-tetraene-9-carboxylic acid methyl ester
- ring closure, isolated yield ([2]; 19-membered ring, Grubbs II, 17.3 mM): 72%

Compound: CC(C)C[C@@H]1NC(=O)[C@@H](NS(=O)(=O)c2ccc(F)cc2)Cc2ccc(cc2)OCCCC[C@@H](CO)NC1=O [Compound 16, 4-Fluoro-N-((7S,10S,13S)-7-hydroxymethyl-10-isobutyl-9,12-dioxo-2-oxa-8,11-diaza-bicyclo-[13.2.2]nonadeca-1(18),15(19),16-trien-13-yl)-benzenesulfonamide]
- IC50 [1, 7]: 930 nM

Compound: CC(C)[C@@H]1NC(=O)[C@@H](NC(=O)OCc2ccccc2)Cc2ccc(cc2)OCCCCSC[C@@H](C=O)NC1=O [Compound 36]
- IC50 [1, 7]: 295 nM

Compound: CC(C)C[C@@H]1NC(=O)[C@@H](NC(=O)OCc2ccccc2)Cc2ccc(cc2)OCCCC[C@@H](CN=[N+]=[N-])NC1=O [Compound 79, (7S-azidomethyl-10S-isobutyl-9,12-dixoxo-2-oxa-8,11-diazabicyclo-[13.2.2]nonadeca-1(18),15(19),16-trien-13S-yl)carbamic acid benzyl ester]
- IC50 [1, 8]: > 50000 nM
- IC50 [1, 7]: > 50000 nM
- IC50 [3]: > 50000 nM
- IC50 [4]: > 50000 nM
- IC50 [5]: > 50000 nM
- IC50 [6]: > 50000 nM

Compound: CC(C)[C@@H]1NC(=O)[C@@H](NS(=O)(=O)c2ccc(F)cc2)Cc2ccc(cc2)OCCCC[C@@H](C=O)NC1=O [Compound 54, 4-Fluoro-N-((7S,10S,135)-7-formyl-10-isopropyl-9,12-dioxo-2-oxa-8,11-diaza-bicyclo[13.2.2]nonadeca-1(18),15(19),16-trien-13-yl)-benzenesulfonamide]
- IC50 [1, 7]: 280 nM

Compound: CC(C)C[C@@H]1NC(=O)[C@@H](NC(=O)OCc2ccccc2)Cc2ccc(cc2)OCCCC[C@@H](C(O)C#N)NC1=O (stereo partly drawn) [Compound 80, [7-(R,S)-(cyanohydroxymethyl)-10S-isobutyl-9,12-dioxo-2-oxa-8,11-diaza-bicyclo-[13.2.2]nonadeca-1(18),15(19),16-trien-13S-yl]carbamic acid benzyl ester]
- IC50 [1, 8]: 8900 nM
- IC50 [3]: 2400 nM
- IC50 [4]: > 50000 nM
- IC50 [5]: 35000 nM
- IC50 [6]: 12000 nM

Compound: (E/Z)-12S-tert-Butoxycarbonylamino-9S-isobutyl-8,11-dioxo-2-oxa-7,10-diazabicyclo[12.2.2]octadeca-1(17),4,14(18),15-tetraene-6S-carboxylic acid methyl ester
- ring closure, isolated yield ([2]; 16-membered ring, Grubbs II (3 x 0.10 equiv), microwave, 10.0 mM): 48%

Compound: (E/Z)-15S-tert-Butoxycarbonylamino-12S-isobutyl-11,14-dioxo-2,7-dioxa-10,13-diaza-bicyclo[15.2.2]heneicosa-1(20),4,17(21),18-tetraene-9R-carboxylic acid methyl ester
- ring closure, isolated yield [2, 9]: 33%

Compound: CC(C)C[C@@H]1NC(=O)[C@@H](NC(=O)OCc2ccccc2)Cc2ccc(cc2)OCCCC[C@@H](CNC2CC2)NC1=O [Compound 81, ((7S,10S,13S)-7-Cyclopropylaminomethyl-10-isobutyl-9,12-dioxo-2-oxa-8,11-diaza-bicyclo[13.2.2]nonadeca-1(18),15(19),16-trien-13-yl)-carbamic acid benzyl ester]
- IC50 [1, 7]: > 50000 nM

Compound: (E/Z)-(9S,12S,15S)-15-tert-Butoxycarbonylamino-12-isopropyl-11,14-dioxo-2,7-dioxa-10,13-diaza-bicyclo[15.2.2]henicosa-1(20),4,17(21),18-tetraene-9-carboxylic acid methyl ester
- ring closure, isolated yield ([2]; 19-membered ring, Grubbs II, 12.6 mM): 23%

Compound: (E/Z)-15S-tert-Butoxycarbonylamino-12S-isobutyl-11,14-dioxo-2-oxa-2-thia-10,13-diaza-bicyclo[15.2.2]heneicosa-1(20),4,17(21),18-tetraene-9R-carboxylic acid methyl ester
- ring closure, isolated yield [2, 9]: 40%

Compound: CC(C)[C@@H]1NC(=O)[C@@H](NC(=O)c2ccc[nH]2)Cc2ccc(cc2)OCCCC[C@@H](C=O)NC1=O [Compound 52, 1H-Pyrrole-2-carboxylic acid ((7S,10S,13S)-7-formyl-10-isopropyl-9,12-dioxo-2-oxa-8,11-diaza-bicyclo[13.2.2]nonadeca-1(18),15(19),16-trien-13-yl)-amide]
- IC50 [1, 7]: 690 nM

Compound: COC(=O)[C@@H]1C/C=C/COc2ccc(cc2)C[C@H](NC(=O)OC(C)(C)C)C(=O)N[C@@H](C(C)C)C(=O)N1
- ring closure, isolated yield ([2]; 17-membered ring, Grubbs II, 10.0 mM): 12%

Compound: CC(C)C[C@@H]1NC(=O)[C@@H](NS(=O)(=O)c2ccc(F)cc2)Cc2ccc(cc2)OCCCC[C@@H](C=O)NC1=O [Compound 17, 4-Fluoro-N-((7S,10S,13S)-7-formyl-10-isobutyl-9,12-dioxo-2-oxa-8,1′-diaza-bicyclo[13.2.2]-nonadeca-1(18),15(19),16-trien-13-yl)-benzenesulfonamide]
- IC50 [1, 7]: 45 nM

Compound: (E/Z)-(7S,10S,13S)-13-(4-Fluoro-benzenesulfonylamino)-10-isobutyl-9,12-dioxo-2-oxa-8,11-diaza-bicyclo[13.2.2]nonadeca-1(18),4,15(19),16-tetraene-7-carboxylic acid methyl ester
- ring closure, isolated yield ([2]; 17-membered ring, Grubbs II/Cy2BCl, 10.3 mM): 63%

Compound: CC(C)[C@@H]1NC(=O)[C@@H](NS(C)(=O)=O)Cc2ccc(cc2)OCCCC[C@@H](C=O)NC1=O [Compound 56, N-((7S,10S,13S)-7-Formyl-10-isopropyl-9,12-dioxo-2-oxa-8,11-diaza-bicyclo[13.2.2]nonadeca-1(18),15(19),16-trien-13-yl)-methanesulfonamide]
- IC50 [1, 7]: 950 nM

Compound: CC(C)[C@@H]1NC(=O)[C@@H](NC(=O)OCc2ccccc2)Cc2ccc(cc2)OCCCC[C@@H](C=O)NC1=O [Compound 50]
- IC50 [1, 7]: 40 nM
